Like-named read-outs stand apart in the source and are kept apart here.
Experiments:
STK3 = STK3 (Homo sapiens (Human), UniProt Q13188); assay: ADP-Glo kinase assay, STK3; assay type: biochemical
Procedure: (§1) The STK3 kinase assay was performed in 5 μL reaction buffer containing 50 ng recombinant human STK3 protein (full length, SignalChem #S24-10G; Richmond, Canada), 250 μg/mL myelin basic protein (Sigma-Aldrich #M1891; St. Louis, MO, USA), and 50 μM ATP (Sigma-Aldrich #A7699). The STK4 kinase assay was performed in 5 μL reaction buffer containing 50 ng recombinant human STK4 protein (full length, SignalChem #S25-10G), 300 μg/mL Axltide (SignalChem #A16-58), and 50 μM ATP. […] Three experiments were performed, each in triplicate.

STK4 = STK4 (Homo sapiens (Human), UniProt Q13043); assay: ADP-Glo kinase assay, STK4; assay type: biochemical; conditions: ADP-Glo, 50 μM ATP; read-out: STK4 IC50
Procedure: as §1

[1] = In vivo plasma and liver concentrations, 20 mg/kg intraperitoneal; conditions: female, C57BL/6J, mouse, ip, 20 mg/kg
Procedure: All animal procedures were approved by the Sanford Burnham Prebys Medical Discovery Institute Institutional Animal Care and Use Committee and were performed according to the NIH guidelines for the Care and Use of Laboratory Animals. Adult female C57BL/6J mice were purchased from Jackson Laboratories and housed with free access to food and water on a 12 h light/dark cycle. Compounds were formulated in 5% DMSO, 10% Tween-80, and 85% H2O and injected intraperitoneally at 10 or 20 mg/kg. Blood samples were collected retro-orbitally at the indicated times and plasma was prepared by centrifugation. Livers were collected post mortem at the indicated times.
For quantification of compound, plasma samples were extracted with acetonitrile: water 4:1 with 0.1% formic acid containing indomethacin as an internal standard. Samples were centrifuged and the supernatants were diluted with acetonitrile: water and analyzed by LC-MS/MS using a Shimadzu Nexera X2 High-performance liquid chromatography (HPLC) (Shimadzu Scientific Instruments: Kyoto, Japan) coupled to an AB Sciex 6500 QTRAP (AB Sciex LLC: Toronto, Canada).
Adult female C57BL/6 mice (n=3/group) were intraperitoneally injected with vehicle or test compound (20 mg/kg), and blood samples and livers were collected at 30 min and 1 h post-injection, respectively. Plasma concentrations of all 13 compounds were >1.4 μM at 30 min after injection, and 10 compounds had liver concentrations >1.0 μM at 1 h after injection, as measured by LC-MS/MS, with particularly high plasma concentrations obtained with compounds 11 (15.9 μM), 16 (11.6 μM) and 105 (8.7 μM) (Table 5). To evaluate target engagement in vivo, the total and phosphorylated MOB1 levels in livers collected at 1 h post-injection was examined.
Tween 80 and water and were administered to mice by intraperitoneal injection. Blood samples and livers were collected at 30 min and 1 h post-dose, respectively. Plasma concentrations and relative pMOB1 levels were determined by LC-MS/MS and western blot analysis, respectively. (n=3).

LRRK2 = LRRK2 (Homo sapiens (Human), UniProt Q5S007); assay: NanoBRET intracellular kinase assay, LRRK2; assay type: cell-based; conditions: transfected HEK293 cells, 2 h
Procedure: Full-length STK3, STK4, and LRRK2 kinase was cloned in-frame with a C-terminal NanoLuc-fusion (Promega: Madison, WI, USA) and the plasmid was transfected into HEK293T cells using FuGENE HD (Promega, E2312). After 20 h, transfected cells were mixed with inhibitors and 50 nM NanoBRET Kinase Tracer K10 (Promega) and reseeded at a density of 2× 10^5 cells/mL in Opti-Minimal Essential Medium (MEM) without phenol red (Life Technologies; Carlsbad, CA, USA) in 384-well plates (Greiner 781-207; Kremsmunster, Austria). After 2 h at 37° C. in a 5% CO2 atmosphere, NanoBRET NanoGlo Substrate+Extra-cellular NanoLuc Inhibitor (Promega, N2540) was added, and filtered luminescence was measured on a PHERAstar plate reader (BMG Labtech; Ortenberg, Germany) equipped with a lumi-nescence filter pair (450 nm BP filter (donor) and 610 nm LP filter (acceptor)).
To confirm cellular potency for compounds described herein, the […] were used to detect engagement of STK3 and STK4 in live cells using the NanoBRET™ intracellular kinase assay, marking the first report of a NanoBRET assay for STK3 and STK4. This assay measured the apparent affinity of test compounds by competitive displacement of the NanoBRET™ tracer, reversibly bound to a NanoLuc® luciferase-kinase fusion in cells. To evaluate potential off-target activity of the inhibitors, the inhibition of LRRK2 in live cells by the STK3/4 inhibitors compounds described herein were measured. Cultured HEK293 cells were either transfected with NanoLuc®-STK3 fusion vector, NanoLuc®-STK4 fusion, or with NanoLuc®-LRRK2 vector for 24 h. A 50 nM tracer and these compounds were added to cells and incubated for 2 h. These compounds tested in the assays decreased the NanoBRET™ signal for both STK3 and STK4 at varying potencies and confirming cellular target engagement of STK3/4.

[2] = ADP-Glo, 50 μM ATP, read-out: STK3 IC50

Chain of STK3 (Q13188 whole entry): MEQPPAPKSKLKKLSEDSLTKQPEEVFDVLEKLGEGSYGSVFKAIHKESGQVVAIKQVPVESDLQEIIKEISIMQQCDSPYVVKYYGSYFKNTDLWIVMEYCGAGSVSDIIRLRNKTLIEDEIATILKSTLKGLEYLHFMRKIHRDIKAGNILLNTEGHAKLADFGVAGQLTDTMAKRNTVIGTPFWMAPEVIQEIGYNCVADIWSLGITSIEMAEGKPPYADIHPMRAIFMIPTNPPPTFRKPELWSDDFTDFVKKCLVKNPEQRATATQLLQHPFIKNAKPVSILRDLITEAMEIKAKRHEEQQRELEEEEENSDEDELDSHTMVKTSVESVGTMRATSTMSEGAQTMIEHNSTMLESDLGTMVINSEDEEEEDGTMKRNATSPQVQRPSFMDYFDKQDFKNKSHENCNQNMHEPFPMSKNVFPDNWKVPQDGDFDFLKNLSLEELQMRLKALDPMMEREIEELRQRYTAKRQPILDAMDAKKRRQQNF
Chain of STK4 (Q13043 whole entry): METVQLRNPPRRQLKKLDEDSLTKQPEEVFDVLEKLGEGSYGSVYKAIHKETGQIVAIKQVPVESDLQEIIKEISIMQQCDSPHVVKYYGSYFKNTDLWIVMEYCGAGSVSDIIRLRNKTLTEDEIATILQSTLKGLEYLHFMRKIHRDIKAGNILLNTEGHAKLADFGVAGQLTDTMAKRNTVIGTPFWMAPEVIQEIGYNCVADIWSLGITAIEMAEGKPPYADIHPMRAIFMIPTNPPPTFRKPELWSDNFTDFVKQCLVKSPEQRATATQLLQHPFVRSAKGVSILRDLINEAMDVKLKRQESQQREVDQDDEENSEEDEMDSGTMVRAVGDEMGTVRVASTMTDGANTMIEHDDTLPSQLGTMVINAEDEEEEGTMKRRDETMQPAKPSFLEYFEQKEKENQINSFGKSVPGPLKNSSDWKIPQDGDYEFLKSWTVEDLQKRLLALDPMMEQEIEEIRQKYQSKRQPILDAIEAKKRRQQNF
Chain of LRRK2 (Q5S007 whole entry, species assumed, the tested form may be a part): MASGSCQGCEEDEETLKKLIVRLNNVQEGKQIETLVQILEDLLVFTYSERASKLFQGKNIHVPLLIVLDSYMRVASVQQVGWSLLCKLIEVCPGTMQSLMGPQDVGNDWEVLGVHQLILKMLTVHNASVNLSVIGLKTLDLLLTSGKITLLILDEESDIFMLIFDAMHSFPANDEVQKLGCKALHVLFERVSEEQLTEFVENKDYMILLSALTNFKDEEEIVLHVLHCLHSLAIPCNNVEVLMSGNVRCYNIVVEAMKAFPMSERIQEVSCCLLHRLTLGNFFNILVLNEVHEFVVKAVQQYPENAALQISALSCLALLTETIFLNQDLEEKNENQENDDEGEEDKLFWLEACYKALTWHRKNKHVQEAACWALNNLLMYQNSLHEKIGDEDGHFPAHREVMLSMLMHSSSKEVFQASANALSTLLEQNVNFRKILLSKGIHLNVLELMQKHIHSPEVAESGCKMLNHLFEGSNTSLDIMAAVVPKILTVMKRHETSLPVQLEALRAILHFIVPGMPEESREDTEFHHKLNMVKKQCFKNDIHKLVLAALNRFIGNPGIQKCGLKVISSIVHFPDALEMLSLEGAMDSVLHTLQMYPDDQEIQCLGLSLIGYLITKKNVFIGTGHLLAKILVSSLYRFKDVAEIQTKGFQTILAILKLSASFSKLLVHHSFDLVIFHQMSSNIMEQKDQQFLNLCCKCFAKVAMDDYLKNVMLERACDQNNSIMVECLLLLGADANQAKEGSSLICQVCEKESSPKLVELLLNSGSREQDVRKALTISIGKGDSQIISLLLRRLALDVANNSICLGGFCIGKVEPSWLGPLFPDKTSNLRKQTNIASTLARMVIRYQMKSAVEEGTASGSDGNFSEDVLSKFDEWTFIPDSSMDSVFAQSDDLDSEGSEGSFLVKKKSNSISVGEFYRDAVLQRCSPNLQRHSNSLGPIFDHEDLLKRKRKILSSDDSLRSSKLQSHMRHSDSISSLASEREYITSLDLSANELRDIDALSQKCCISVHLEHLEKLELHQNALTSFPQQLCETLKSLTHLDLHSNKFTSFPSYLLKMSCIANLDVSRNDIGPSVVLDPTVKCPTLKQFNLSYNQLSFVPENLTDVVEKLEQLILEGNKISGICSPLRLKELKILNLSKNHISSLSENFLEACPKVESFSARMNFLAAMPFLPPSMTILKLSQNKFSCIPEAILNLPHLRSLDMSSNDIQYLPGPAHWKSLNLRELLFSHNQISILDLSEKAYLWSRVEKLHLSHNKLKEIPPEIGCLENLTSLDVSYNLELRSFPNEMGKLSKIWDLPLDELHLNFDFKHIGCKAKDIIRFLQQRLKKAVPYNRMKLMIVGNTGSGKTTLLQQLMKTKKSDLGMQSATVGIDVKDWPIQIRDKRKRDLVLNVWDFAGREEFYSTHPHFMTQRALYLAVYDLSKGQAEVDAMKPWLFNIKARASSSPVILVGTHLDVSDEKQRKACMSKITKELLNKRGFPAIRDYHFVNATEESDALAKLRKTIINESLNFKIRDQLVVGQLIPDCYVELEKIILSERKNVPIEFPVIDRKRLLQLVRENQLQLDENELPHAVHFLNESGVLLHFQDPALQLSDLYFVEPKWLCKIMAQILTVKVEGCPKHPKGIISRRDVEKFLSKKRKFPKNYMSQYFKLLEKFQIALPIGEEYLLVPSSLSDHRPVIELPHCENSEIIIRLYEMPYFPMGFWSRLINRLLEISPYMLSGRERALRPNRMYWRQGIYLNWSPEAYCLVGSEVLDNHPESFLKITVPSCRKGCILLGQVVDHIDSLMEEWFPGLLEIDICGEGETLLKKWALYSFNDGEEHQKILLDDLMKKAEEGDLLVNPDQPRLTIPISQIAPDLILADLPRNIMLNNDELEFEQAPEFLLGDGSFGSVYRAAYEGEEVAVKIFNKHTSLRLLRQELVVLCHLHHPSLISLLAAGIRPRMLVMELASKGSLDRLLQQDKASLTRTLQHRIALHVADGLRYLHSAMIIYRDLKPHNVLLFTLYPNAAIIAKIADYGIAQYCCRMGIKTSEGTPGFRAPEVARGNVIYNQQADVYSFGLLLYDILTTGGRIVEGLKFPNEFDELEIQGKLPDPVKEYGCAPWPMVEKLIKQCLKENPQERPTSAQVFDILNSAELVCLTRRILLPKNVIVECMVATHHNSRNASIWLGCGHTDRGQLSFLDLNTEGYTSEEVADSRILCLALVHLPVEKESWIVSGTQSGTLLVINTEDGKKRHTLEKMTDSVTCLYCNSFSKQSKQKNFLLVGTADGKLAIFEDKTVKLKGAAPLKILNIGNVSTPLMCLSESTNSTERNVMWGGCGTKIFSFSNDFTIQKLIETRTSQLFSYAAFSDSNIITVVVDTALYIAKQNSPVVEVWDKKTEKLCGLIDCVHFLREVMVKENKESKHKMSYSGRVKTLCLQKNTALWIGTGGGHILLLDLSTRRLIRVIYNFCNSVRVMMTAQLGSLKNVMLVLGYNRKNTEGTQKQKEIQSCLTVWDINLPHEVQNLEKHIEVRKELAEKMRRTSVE

| SMILES | IC50 (STK3; [2]) [µM] | IC50 (STK4) [µM] | also measured |
| --- | --- | --- | --- |
| C=CC(=O)Cc1nc(N2CCOCC2)c2c(-c3cccc(Cl)c3)c[nH]c2n1 [Compound 97, 1-(5-(3-chlorophenyl)-4-morpholino-7H-pyrrolo[2,3-d]pyrimidin-2-yl)but-3-en-2-one] | > 5 | > 5 |  |
| CNS(=O)(=O)c1ccc(Nc2nc(N3CCOCC3)c3c(-c4cccc(Cl)c4)c[nH]c3n2)cc1 [Compound 98, 4-((5-(3-chlorophenyl)-4-morpholino-7H-pyrrolo[2,3-d]pyrimidin-2-yl)amino)-N-methylbenzenesulfonamide] | < 1 | < 1 |  |
| COC(=O)c1ccc(Nc2nc(N3CCOCC3)c3c(-c4cccc(Cl)c4)c[nH]c3n2)cc1 [Compound 99, methyl 4-((5-(3-chlorophenyl)-4-morpholino-7H-pyrrolo[2,3-d]pyrimidin-2-yl)amino)benzoate] | > 5 | > 5 |  |
| O=C(O)c1ccc(Nc2nc(N3CCOCC3)c3c(-c4cccc(Cl)c4)c[nH]c3n2)cc1 [Compound 100, 4-((5-(3-chlorophenyl)-4-morpholino-7H-pyrrolo[2,3-d]pyrimidin-2-yl)amino)benzoic acid] | 1 to 5 | < 1 |  |
| O=[N+]([O-])c1ccc(Nc2nc(N3CCOCC3)c3c(-c4cccc(Cl)c4)c[nH]c3n2)cc1 [Compound 101, 5-(3-chlorophenyl)-4-morpholino-N-(4-nitrophenyl)-7H-pyrrolo[2,3-d]pyrimidin-2-amine] | > 5 | > 5 |  |
| CC1(N)CCN(c2ncnc3[nH]cc(-c4cccc(Cl)c4)c23)CC1 [Compound 102, 1-(5-(3-chlorophenyl)-7H-pyrrolo[2,3-d]pyrimidin-4-yl)-4-methylpiperidin-4-amine] | < 1 |  | concentration at 30 min [1]: 1.4 µM; concentration at 1 h [1]: 15.9 µM |
| CC(O)CNc1ncnc2[nH]cc(-c3cccc(Cl)c3)c12 (stereo not shown) [Compound 104, 1-((5-(3-chlorophenyl)-7H-pyrrolo[2,3-d]pyrimidin-4-yl)amino)propan-2-ol] | < 1 | < 1 |  |
| CNC1CCN(c2ncnc3[nH]cc(-c4cccc(Cl)c4)c23)CC1 [Compound 106, 1-(5-(3-chlorophenyl)-7H-pyrrolo[2,3-d]pyrimidin-4-yl)-N-methylpiperidin-4-amine] |  |  | IC50 (LRRK2): ≥ 2 µM; concentration at 30 min [1]: 2.2 µM; concentration at 1 h [1]: 7.8 µM |
| CN(C)C1CCN(c2ncnc3[nH]cc(-c4cccc(Cl)c4)c23)CC1 [Compound 107, 1-(5-(3-chlorophenyl)-7H-pyrrolo[2,3-d]pyrimidin-4-yl)-N,N-dimethylpiperidin-4-amine] | < 1 | < 1 |  |
| CC1CCN(c2ncnc3[nH]cc(-c4cccc(Cl)c4)c23)CC1 [Compound 109, 5-(3-chlorophenyl)-4-(4-methylpiperidin-1-yl)-7H-pyrrolo[2,3-d]pyrimidine] | < 1 | < 1 |  |
| COC1CCN(c2ncnc3[nH]cc(-c4cccc(Cl)c4)c23)CC1 [Compound 110, 5-(3-chlorophenyl)-4-(4-methoxypiperidin-1-yl)-7H-pyrrolo[2,3-d]pyrimidine] | < 1 | < 1 |  |
| CCCCNc1ncnc2[nH]cc(-c3cccc(Cl)c3)c12 [Compound 116, N-butyl-5-(3-chlorophenyl)-7H-pyrrolo[2,3-d]pyrimidin-4-amine] | < 1 | < 1 |  |
| CC(CO)CNc1ncnc2[nH]cc(-c3cccc(Cl)c3)c12 (stereo not shown) [Compound 117, 3-((5-(3-chlorophenyl)-7H-pyrrolo[2,3-d]pyrimidin-4-yl)amino)-2-methylpropan-1-ol] | < 1 | < 1 |  |
| O=C1CCN(c2ncnc3[nH]cc(-c4cccc(Cl)c4)c23)CC1 [Compound 118, 1-(5-(3-chlorophenyl)-7H-pyrrolo[2,3-d]pyrimidin-4-yl)piperidin-4-one] |  | < 1 | IC50 (STK3): 1 to 5 µM |
| N#Cc1ccc(Nc2nc(N3CCOCC3)c3c(-c4cccc(Cl)c4)c[nH]c3n2)cc1 [Compound 120, 4-((5-(3-chlorophenyl)-4-morpholino-7H-pyrrolo[2,3-d]pyrimidin-2-yl)amino)benzonitrile] | > 5 | > 5 |  |
| COCC(C)CN(C)c1ncnc2[nH]cc(-c3cccc(Cl)c3)c12 (stereo not shown) [Compound 122, 5-(3-chlorophenyl)-N-(3-methoxy-2-methylpropyl)-N-methyl-7H-pyrrolo[2,3-d]pyrimidin-4-amine] | 1 to 5 | 1 to 5 |  |
| COCC(C)CNc1ncnc2[nH]cc(-c3cccc(Cl)c3)c12 (stereo not shown) [Compound 123, 5-(3-chlorophenyl)-N-(3-methoxy-2-methylpropyl)-7H-pyrrolo[2,3-d]pyrimidin-4-amine] | < 1 | < 1 |  |
| CC(=O)NC1(C)CCN(c2ncnc3[nH]cc(-c4cccc(Cl)c4)c23)CC1 [Compound 124, N-(1-(5-(3-chlorophenyl)-7H-pyrrolo[2,3-d]pyrimidin-4-yl)-4-methylpiperidin-4-yl)acetamide] | 1 to 5 | 1 to 5 |  |
| CC(CNc1ncnc2[nH]cc(-c3cccc(Cl)c3)c12)C(N)=O (stereo not shown) [Compound 125, 3-((5-(3-chlorophenyl)-7H-pyrrolo[2,3-d]pyrimidin-4-yl)amino)-2-methylpropanamide] | < 1 | < 1 |  |
| CC(CNc1ncnc2[nH]cc(-c3cccc(Cl)c3)c12)C(=O)O (stereo not shown) [Compound 126, 3-((5-(3-chlorophenyl)-7H-pyrrolo[2,3-d]pyrimidin-4-yl)amino)-2-methylpropanoic acid] | 1 to 5 | 1 to 5 |  |
| CC(CN)CNc1ncnc2[nH]cc(-c3cccc(Cl)c3)c12 (stereo not shown) [Compound 127, N^1-(5-(3-chlorophenyl)-7H-pyrrolo[2,3-d]pyrimidin-4-yl)-2-methylpropane-1,3-diamine] | < 1 | < 1 |  |
| CC(=O)N(C)CC(C)CN(C)c1ncnc2[nH]cc(-c3cccc(Cl)c3)c12 (stereo not shown) [Compound 128] | < 1 | 1 to 5 |  |
| CC(=O)NCC(C)CNc1ncnc2[nH]cc(-c3cccc(Cl)c3)c12 (stereo not shown) [Compound 129, N-(3-((5-(3-chlorophenyl)-7H-pyrrolo[2,3-d]pyrimidin-4-yl)amino)-2-methylpropyl)acetamide] | < 1 | < 1 |  |
| CC(=O)NCC(C)CNc1ncnc2[nH]cc(-c3ccccc3)c12 (stereo not shown) [Compound 130, N-(2-methyl-3-((5-phenyl-7H-pyrrolo[2,3-d]pyrimidin-4-yl)amino)propyl)acetamide] | 1 to 5 | 1 to 5 |  |
| CNCC(C)CNc1ncnc2[nH]cc(-c3cccc(Cl)c3)c12 (stereo not shown) [Compound 131, N^1-(5-(3-chlorophenyl)-7H-pyrrolo[2,3-d]pyrimidin-4-yl)-N^3,2-dimethylpropane-1,3-diamine] | > 5 | > 5 |  |
